Each structure is given as a SMILES string.

Among the data in ChEMBL document CHEMBL4229358, “Synthesis of novel 4-functionalized 1,5-diaryl-1,2,3-triazoles containing benzenesulfonamide moiety as carbonic anhydrase I, II, IV and IX inhibitors” (Eur J Med Chem, 2018) are Ki values, retold here.

In the test the target is Carbonic anhydrase 9 (Homo sapiens, UniProt Q16790). In words: Inhibition of transmembrane human carbonic anhydrase 9 by stopped flow CO2 hydration assay.
`NS(=O)(=O)c1ccc(-n2nnc(C(=O)O)c2-c2cccs2)cc1` registered a Ki of 1310 nM. This lies in the single-digit micromolar range.

As for `CCOC(=O)c1nnn(-c2ccc(S(N)(=O)=O)cc2)c1-c1cccs1`, the inhibition constant (Ki) was found to be 237 nM.

Regarding `NS(=O)(=O)c1ccc(-n2nnc(CO)c2-c2ccccn2)cc1`, the Ki came out at 14.3 nM. This Ki lies about 17-fold lower than the previous one.

With `CCOC(=O)c1nnn(-c2ccc(S(N)(=O)=O)cc2)c1-c1ccccn1`, the affinity corresponds to a Ki of 1420 nM.

As for `NNC(=O)c1nnn(-c2ccc(S(N)(=O)=O)cc2)c1-c1ccc(Br)cc1`, the Ki was 1350 nM. This Ki and that of the compound before are within 1.5-fold of each other.

`NC(=O)c1nnn(-c2ccc(S(N)(=O)=O)cc2)c1-c1cccs1`: affinity was put at a Ki of 225 nM.

`Cc1ccc(-c2c(C(=O)O)nnn2-c2ccc(S(N)(=O)=O)cc2)cc1`: the inhibition constant Ki worked out at 1410 nM.

In turn, `Cc1ccc(-c2c(C(=O)NN)nnn2-c2ccc(S(N)(=O)=O)cc2)cc1` gave a Ki of 738 nM.

`NC(=O)c1nnn(-c2ccc(S(N)(=O)=O)cc2)c1-c1ccc(Br)cc1` gave a Ki of 256 nM. This Ki is about 2.9-fold lower than that of the compound before.

`NS(=O)(=O)c1ccc(-n2nnc(C(=O)O)c2-c2ccc(Br)cc2)cc1` returned a Ki of 1410 nM.

`NS(=O)(=O)c1ccc(-n2nnc(CO)c2-c2ccc(Br)cc2)cc1` had an inhibition constant Ki of 1730 nM. This Ki and that of the compound before are within 1.5-fold of each other.

Take `NNC(=O)c1nnn(-c2ccc(S(N)(=O)=O)cc2)c1-c1ccc(F)cc1`: the affinity, expressed as Ki, was 2450 nM.

`NNC(=O)c1nnn(-c2ccc(S(N)(=O)=O)cc2)c1-c1ccccn1` gave a Ki of 2900 nM. The Ki values of the last two compounds are within 1.5-fold of each other.

Regarding `NC(=O)c1nnn(-c2ccc(S(N)(=O)=O)cc2)c1-c1ccccn1`, the affinity, expressed as Ki, was 730 nM.

Take `CCOC(=O)c1nnn(-c2ccc(S(N)(=O)=O)cc2)c1-c1ccc(F)cc1`: the inhibition constant Ki was 633 nM.

As for `CCOC(=O)c1nnn(-c2ccc(S(N)(=O)=O)cc2)c1-c1ccc(C)cc1`, the inhibition constant (Ki) came out at 198 nM.

The compound `CCOC(=O)c1nnn(-c2ccc(S(N)(=O)=O)cc2)c1-c1ccc(Cl)cc1` returned an inhibition constant Ki of 1480 nM. Compared with the last compound, the Ki is about 7.5-fold higher.

In turn, `Cc1ccc(-c2c(C(N)=O)nnn2-c2ccc(S(N)(=O)=O)cc2)cc1` came in with a Ki of 73 nM.

In turn, `NS(=O)(=O)c1ccc(-n2nnc(C(=O)O)c2-c2ccc(Cl)cc2)cc1` showed an inhibition constant (Ki) of 716 nM.

In the case of `NS(=O)(=O)c1ccc(-n2nnc(CO)c2-c2cccs2)cc1`, the Ki was found to be 71.2 nM.

Turning to `NC(=O)c1nnn(-c2ccc(S(N)(=O)=O)cc2)c1-c1ccc(F)cc1`, the affinity, expressed as Ki, was 107 nM.

As for `NS(=O)(=O)c1ccc(-n2nnc(C(=O)O)c2-c2ccccn2)cc1`, the inhibition constant Ki is 2090 nM.

With `NNC(=O)c1nnn(-c2ccc(S(N)(=O)=O)cc2)c1-c1ccc(Cl)cc1`, the Ki is 909 nM. This Ki is about 2.3-fold lower than that of the compound before.

Take `Cc1ccc(-c2c(CO)nnn2-c2ccc(S(N)(=O)=O)cc2)cc1`: the Ki is 2330 nM. This Ki lies about 2.6-fold higher than the previous one.

For the compound `NS(=O)(=O)c1ccc(-n2nnc(CO)c2-c2ccc(F)cc2)cc1`, the affinity, expressed as Ki, was 2370 nM.

Take `CCOC(=O)c1nnn(-c2ccc(S(N)(=O)=O)cc2)c1-c1ccc(Br)cc1`: the affinity corresponds to a Ki of 228 nM.

Consider `NS(=O)(=O)c1ccc(-n2nnc(C(=O)O)c2-c2ccc(F)cc2)cc1`, for which the inhibition constant (Ki) is 1580 nM.

`NS(=O)(=O)c1ccc(-n2nnc(CO)c2-c2ccc(Cl)cc2)cc1` returned an inhibition constant (Ki) of 1210 nM.

As to `NNC(=O)c1nnn(-c2ccc(S(N)(=O)=O)cc2)c1-c1cccs1`, the affinity, expressed as Ki, was 2830 nM.

`NC(=O)c1nnn(-c2ccc(S(N)(=O)=O)cc2)c1-c1ccc(Cl)cc1` gave a Ki of 117 nM.

What is called Ki is a measure of affinity in units of concentration, obtained from inhibition or displacement. Read a high Ki as lower affinity.
